Laboratory results from US8759400B2, “Histone deacetylase inhibitors for enhancing activity of antifungal agents” (MethylGene Inc., priority 2005, dated 2014).
Like-named read-outs stand apart in the source and are kept apart here. Each block holds one compound with its values, some of them ahead of it.

Key:
[1] = system: HDAC; assay: HDAC inhibitory activity in fungal protoplasts (Fluor-de-Lys); type: cell-based, Candida albicans; conditions: C. albicans protoplasts; for HDAC inhibition, per cent in parentheses beside IC50 >20: concentration not given
Procedure: (§1) Protoplasts of C. albicans and C. glabrata are prepared by the […] method of Franzusoff et al.

[2] = system: C. glabrata (ATCC 90030); assay: MIC80 and checkerboard synergy with antifungal agents; type: cell-based, Candida glabrata; conditions: C. glabrata (ATCC 90030)
[3] = system: A. fumigatus ATCC 1022; assay: MIC80 and checkerboard synergy, broth microdilution (NCCLS M38-A); type: cell-based, Aspergillus fumigatus; conditions: for conc. for 4-fold synergy: 48 hours
[4] = system: C. dubliniensis; assay: Clinical isolates, CLSI M27-A2 broth microdilution and checkerboard; type: cell-based; conditions: Candida dubliniensis
[5] = system: HMEC; assay: Mammalian cytotoxicity, MTT reduction
[6] = system: HDAC; assay: HDAC inhibitory activity in fungal protoplasts (Fluor-de-Lys); type: cell-based, Candida glabrata; conditions: C. glabrata protoplasts; for HDAC inhibition, per cent in parentheses beside IC50 >20: concentration not given
Procedure: as §1

[7] = system: C. albicans (ATCC 90028); assay: MIC80 and checkerboard synergy with antifungal agents; type: cell-based, Candida albicans; conditions: Candida albicans, ATCC90028; compound alone; C. albicans (ATCC 90028); read-out: MIC80
[8] = system: HDAC; assay: HDAC inhibitory activity in fungal protoplasts (Boc-Lys(Ac)-AMC); type: cell-based, Aspergillus fumigatus; conditions: A. fumigatus protoplasts
[9] = system: C. glabrata (ATCC 90030); type: cell-based; conditions: agar plates containing 4×MIC of the relevant azole alone
[10] = with itraconazole, A. fumigatus ATCC 1022
[11] = Nakaseomyces glabratus, ATCC90030, compound alone
[12] = Nakaseomyces glabratus, ATCC90030, compound alone, read-out: MIC80

SMILES: O=C(/C=C/c1ccc(CNc2cccc(Cl)c2)cc1)NO [Cpd 18]
HDAC inhibition IC50 [1]: ~16 µg/mL

SMILES: Nc1ccc(-c2cccs2)cc1-c1cccs1 [Cpd 19]
conc. for 4-fold synergy (24 hr) ([2]; with ketoconazole, 24 hr): 0.5 (24 hr) μg/ml

SMILES: O=C(Cc1ccc(CCCCc2ccccc2)cc1)NO [drawing 151]
conc. for 4-fold synergy [3, 10]: >1 µg/mL

SMILES: C[C@@H](c1ncncc1F)[C@](O)(Cn1cncn1)c1ccc(F)cc1F [voriconazole, reference compound]
MIC ([4]; voriconazole alone, C. dubliniensis clinical isolates, CLSI M27-A2, 48 hour endpoint, read-out: VOR MIC): 0.007 µg/mL

SMILES: N#Cc1ccc(-c2ccc(OCCC(=O)NO)cc2)cc1 [Cpd 21]
MTT HMEC [5]: 50 µM

MIC50 [2, 11]: > 25 µg/mL
SMILES: O=C(Cc1ccc(CCCCc2ccc(C(F)(F)F)cc2)cc1)NO

SMILES: O=C(Cc1ccc(CCCCc2ccccc2)cc1)NO [drawing 153]
conc. for 4-fold synergy ([3]; with voriconazole, A. fumigatus (ATCC 1022)): 1 µg/mL

HDAC inhibition IC50 [6]: 50 µg/mL
SMILES: COc1ccc(C(OC)C(C)(C)CCCCC(=O)NO)cc1 (stereo not drawn) [Cpd 11]
MTT HMEC [5]: 50 µM

MIC50 [2, 11]: > 25 µg/mL
SMILES: O=C(Cc1ccc(CCCCc2ccc3c(c2)OCO3)cc1)NO

SMILES: O=C(NO)c1ccc(CCCCCc2ccccc2)cc1 [Cpd 3]
MTT HMEC [5]: 9 µM

SMILES: O=C(NO)c1cccc(CCCc2ccccc2)c1 [Cpd 1]
HDAC inhibition IC50 [6]: > 20 µg/mL
HDAC inhibition, per cent in parentheses beside IC50 >20 [6]: 38%
MIC [7]: > 16 µg/mL
HDAC inhibition IC50 [1]: 9.1 µg/mL

MIC50 [2, 11]: 12.5 µg/mL
SMILES: O=C(Cc1ccc(CCCCc2cccc(C(F)(F)F)c2)cc1)NO

HDAC inhibition IC50 [1]: > 20 µg/mL
HDAC inhibition, per cent in parentheses beside IC50 >20 [1]: 18%
SMILES: C[C@H](/C=C/C=C/C(=O)NO)Oc1ccc(-c2ccccc2)cc1 [Cpd 15]

MIC50 [2, 11]: 12.5 µg/mL
SMILES: O=C(Cc1ccc(CCCCc2ccccc2C(F)(F)F)cc1)NO

SMILES: O=C(CCc1ccc(CCCc2ccccc2)cc1)NO [drawing 146]
MTT HMEC ([5]; Table 9 head): 4e-05 µM

HDAC inhibition IC50 [8]: 2.0 µg/mL
SMILES: CC(/C=C/C(=O)NO)=C\C(C)Cc1ccc(N(C)C)cc1 (stereo not drawn) [drawing 150]
conc. for 4-fold synergy [3, 10]: 0.25 µg/mL
MTT HMEC [5]: 44 µM

MIC50 [2, 11]: > 25 µg/mL
SMILES: O=C(Cc1ccc(CCC#Cc2ccc3nonc3c2)cc1)NO

SMILES: O=C(CCc1ccc(CCc2ccccc2)cc1)NO [drawing 147]
MTT HMEC ([5]; Table 9 head): 1e-05 µM

SMILES: OC(Cn1cncn1)(Cn1cncn1)c1ccc(F)cc1F [fluconazole]
frequency of resistant C. glabrata mutants [9]: 5×10^−6
MIC ([4]; 48 h, read-out: FLU MIC): 0.12 µg/mL

SMILES: CC(/C=C/C(=O)NO)=C\[C@@H](C)C(=O)c1ccc(N(C)C)cc1 [TSA, trichostatin A, reference compound]
MIC80 ([3]; Aspergillus fumigatus, ATCC1022, compound alone, A. fumigatus ATCC 1022, read-out: MIC80): 64 to 128 µg/mL
conc. for 4-fold synergy ([3]; with ketoconazole, A. fumigatus ATCC 1022): 4 µg/mL
MIC80 [2, 12]: 64 µg/mL
HDAC inhibition IC50 [8]: 0.01 µg/mL
HDAC inhibition IC50 [6]: ~0.06 µg/mL
MIC80 [7]: > 128 µg/mL
MTT HMEC [5]: 1 µM
HDAC inhibition IC50 [1]: 0.07 µg/mL

MIC [2, 12]: 16 µg/mL
HDAC inhibition IC50 [6]: > 20 µg/mL
HDAC inhibition, per cent in parentheses beside IC50 >20 [6]: 27%
MIC [7]: > 8 µg/mL
HDAC inhibition IC50 [1]: > 20 µg/mL
HDAC inhibition, per cent in parentheses beside IC50 >20 [1]: 15%
SMILES: O=C(CCc1ccc(CCc2ccccc2)cc1)NO [Cpd 7]
MTT HMEC [5]: 10 µM

SMILES: CC(/C=C/C(=O)NO)=C\C(C)Cc1ccc(N(C)C)cc1 (stereo not drawn) [drawing 143]
MTT HMEC ([5]; Table 9 head): 4.4e-05 µM

SMILES: O=C(Cc1ccc(CCCc2ccccc2)cc1)NO [drawing 145]
MTT HMEC ([5]; Table 9 head): 4.7e-05 µM

MIC50 [2, 11]: 6.25 µg/mL
SMILES: O=C(Cc1ccc(CCCCCc2ccccc2)cc1)NO
